In patent publication EP3586876A1, “GLUCOSE-SENSITIVE PEPTIDE HORMONES” (Gubra ApS, priority 2018, dated 2020):

Assay: Hydrolysis of linkers with or without glucose present (half-life by LC-MS or UPLC)
Type: physicochemical
Conditions: pH 7.4, 37°C, 0.42 mM linker
Experimental: 1.3-1.8 mg of linkers was dissolved in 100 µL DMSO or 100 µL MeCN. 10 µL was taken out from the DMSO stock solution, diluted with 90µL DMSO and dissolved in 900 µL 1xPBS buffer containing 10 000 equiv glucose, pH 7.4 or 900 µL 1xPBS buffer pH 7.4, to give a final concentration of 0.42 mM of the linker. 10 µL was taken out from the MeCN stock solution, diluted with 40 µL MeCN and dissolved in 950 µL 1xPBS buffer containing 10 000 equiv glucose, pH 7.4 or 950 µL 1xPBS buffer pH 7.4 to give a final concentration of 0.42 mM of the linker. The samples were incubated at 37°C and continuously analysed by LC-MS or UPLC.

[1] = 10% DMSO in PBS buffer, 10.000 equiv Glc
[2] = 5% MeCN in PBS buffer, 10.000 equiv Glc

SMILES	Half-life of the linker [1] [h]	Half-life of the linker (10% DMSO in PBS buffer, no Glc) [h]	Half-life of the linker [2] [h]	Half-life of the linker (5% MeCN in PBS buffer, no Glc) [h]
O=C(O)[C@@H]1CSC(c2ccccc2O)N1 (some centres unmarked) [Linker 3]	0.5	2		
CC(=O)Nc1ccc(C2N[C@H](C(=O)OCc3ccccc3)CS2)cc1 (stereo partly drawn) [Linker 11, Benzyl (4R)-2-(4-acetamidophenyl)-1,3-thiazolidine-4-carboxylic acid]	>72		>72	
O=C(O)[C@@H]1CSC(c2ccc([N+](=O)[O-])cc2)N1 (some centres unmarked) [Linker 5]	>24	>72		
COc1ccc(C2N[C@H](C(=O)OCc3ccccc3)CS2)cc1 (stereo partly drawn) [Linker 8, Benzyl (4R)-2-(4-methoxyphenyl)-1,3-thiazolidine-4-carboxylic acid]	42		46	
COc1ccc(C2OC[C@@H](C(=O)OCc3ccccc3)N2C(=O)OC(C)(C)C)cc1 (some centres unmarked) [Linker 13]	>72	>72	>72	>72
O=C(OCc1ccccc1)[C@@H]1CSC(c2ccccc2)N1 (stereo partly drawn) [Linker 7, Benzyl (4R)-2-phenyl-1,3-thiazolidine-4-carboxylic acid]	>48		>48	
COc1ccccc1C1N[C@H](C(=O)OCc2ccccc2)CS1 (stereo partly drawn) [Linker 10, Benzyl (4R)-2-(2-methoxyphenyl)-1,3-thiazolidine-4-carboxylic acid]	23		45	
O=C(O)[C@@H]1CSC(Cc2ccccc2)N1 (some centres unmarked) [Linker 6]	24	>72		
O=C(O)[C@@H]1CSC(c2ccccc2)N1 (some centres unmarked) [Linker 1]	12	>48		
COc1ccc(C2N[C@H](C(=O)O)CS2)cc1O (some centres unmarked) [Linker 4]	4	10		
COC(=O)[C@@H]1OC(c2ccc(OC)cc2)O[C@H]1C(=O)OC [Linker 17]	1.1	1.8	2.2	2.2
COC(=O)[C@@H]1OC(c2ccccc2OC)O[C@H]1C(=O)OC [Linker 19]	1.5	1.7	2.5	2.5
CC(C)(C)OC(=O)N1C(c2ccccc2)OC[C@H]1C(=O)OCc1ccccc1 (some centres unmarked) [Linker 15]	>72	>72	>72	>72
COc1cccc(C2N[C@H](C(=O)OCc3ccccc3)CS2)c1 (stereo partly drawn) [Linker 9, Benzyl (4R)-2-(3-methoxyphenyl)-1,3-thiazolidine-4-carboxylic acid]	>72		>72	
COc1ccc(C2N[C@H](C(=O)O)CS2)cc1 (some centres unmarked) [Linker 2]	2	4		
